Measured values reported in publication PMC7419506, “KN3014, a piperidine-containing small compound, inhibits auto-secretion of IL-1β from PBMCs in a patient with Muckle–Wells syndrome” (Scientific Reports, 2020).

Molecular target: T1, ASC (Homo sapiens, UniProt Q96P20+Q9ULZ3)
T1 construct: gene PYCARD; FLAG-ASC-PYD (N-terminal FLAG-tagged pyrin domain of ASC); with NLRP3 (NLRP3-FL-Btn, C-terminal biotinylated full-length)
Assay: ALPHA-screen protein-protein interaction inhibition, wheat germ cell-free synthesized proteins
Type: binding
Text: ALPHA-screen protein-protein interaction inhibition, wheat germ cell-free synthesized proteins on ASC | The interaction between NLRP3-FL-Btn and FLAG-ASC-PYD was disrupted by both KN3014 and KN8311 in a dose-dependent manner.

T1 sequence (Q9ULZ3 1-91 limits assumed): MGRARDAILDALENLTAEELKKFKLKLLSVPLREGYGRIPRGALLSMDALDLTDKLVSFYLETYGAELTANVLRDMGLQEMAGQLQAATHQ
T1 sequence (Q96P20 whole entry, the tested form may be a part): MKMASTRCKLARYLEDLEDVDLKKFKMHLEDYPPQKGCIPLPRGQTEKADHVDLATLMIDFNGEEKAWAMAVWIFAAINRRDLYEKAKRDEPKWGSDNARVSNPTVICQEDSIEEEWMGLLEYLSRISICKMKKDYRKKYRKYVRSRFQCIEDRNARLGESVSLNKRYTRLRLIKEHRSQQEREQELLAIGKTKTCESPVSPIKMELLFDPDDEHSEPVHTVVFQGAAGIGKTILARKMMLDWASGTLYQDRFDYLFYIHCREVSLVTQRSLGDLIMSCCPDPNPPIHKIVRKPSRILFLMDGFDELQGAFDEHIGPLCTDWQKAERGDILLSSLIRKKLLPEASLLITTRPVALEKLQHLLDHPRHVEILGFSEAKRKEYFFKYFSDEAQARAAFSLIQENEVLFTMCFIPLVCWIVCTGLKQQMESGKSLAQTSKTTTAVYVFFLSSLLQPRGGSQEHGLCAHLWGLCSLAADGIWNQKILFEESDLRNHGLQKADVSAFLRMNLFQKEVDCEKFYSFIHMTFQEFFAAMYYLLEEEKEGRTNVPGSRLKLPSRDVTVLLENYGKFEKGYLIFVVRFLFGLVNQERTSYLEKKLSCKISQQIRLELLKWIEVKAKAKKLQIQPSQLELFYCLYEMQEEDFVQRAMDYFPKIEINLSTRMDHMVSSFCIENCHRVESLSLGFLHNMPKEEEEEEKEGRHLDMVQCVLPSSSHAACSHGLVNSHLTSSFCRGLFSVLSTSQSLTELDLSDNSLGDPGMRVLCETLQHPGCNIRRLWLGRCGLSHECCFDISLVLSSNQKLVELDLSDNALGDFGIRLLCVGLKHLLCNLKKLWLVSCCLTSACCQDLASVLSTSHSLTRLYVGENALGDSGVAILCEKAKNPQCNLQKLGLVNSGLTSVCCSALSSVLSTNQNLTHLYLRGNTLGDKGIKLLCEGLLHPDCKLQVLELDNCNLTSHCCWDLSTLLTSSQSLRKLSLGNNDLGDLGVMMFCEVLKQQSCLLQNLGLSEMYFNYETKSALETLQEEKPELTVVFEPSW

IC50: 14.6 µM
Compound: Cc1ccccc1OCC(=O)NCC(c1ccc2c(c1)CCCN2C)N1CCCCC1 (stereo not shown) [KN3014, N-(2-(1-methyl-1,2,3,4-tetrahydroquinolin-6-yl)-2-(piperidin-1-yl)ethyl)-2-(o-tolyloxy)acetamide]
